According to US7452701B2, “Methods for the preparation of β-amino acids” (Wisconsin Alumni Research Foundation, priority 1998, dated 2008):
Entries after “also recorded” stand apart in the source; their conditions may differ.

B1: Bacillus subtilus (SEQ ID NO:9): product of the Bacillus subtilus gene cloned in pET23a(+) and expressed in E. coli BL21 (DE3); tested as cell extract (protein, listed as Bacillus subtilis)
chain: MKNKWYKPKRHWKEIELWKDVPEEKWNDWLWQLTHTVRTLDDLKKVINLTEDEEEGVRISTKTIPLNITPYYASLMDPDNPRCPVRMQSVPLSEEMHKTKYDLEDPLHEDEDSPVPGLTHRYPDRVLFLVTNQCSMYCRYCTRRRFSGQIGMGVPKKQLDAAIAYIRETPEIRDCLISGGDGLLINDQILEYILKELRSIPHLEVIRIGTRAPVVFPQRITDHLCEILKKYHPVWLNTHFNTSIEMTEESVEACEKLVNAGVPVGNQAVVLAGINDSVPIMKKLMHDLVKIRVRPYYIYQCDLSEGIGHFRAPVSKGLEIIEGLRGHTSGYAVPTFVVDAPGGGGKIALQPNYVLSQSPDKVILRNFEGVITSYPEPENYIPNQADAYFESVFPETADKKEPIGLSAIFADKEVSFTPENVDRIKRREAYIANPEHETLKDRREKRDQLKEKKFLAQQKKQKETECGGDSS
modifications: CDS (1)..(1413)
notes: product of the Bacillus subtilus gene cloned in pET23a(+) and expressed in E. coli BL21 (DE3); tested as cell extract
B2: purified lysine 2,3-aminomutase from Clostridium subterminale SB4 cells: naturally produced Clostridial enzyme, SEQ ID NO: 2 (protein)
chain: MINRRYELFKDVSDADWNDWRWQVRNRIETVEELKKYIPLTKEEEEGVAQCVKSLRMAITPYYLSLIDPNDPNDPVRKQAIPTALELNKAAADLEDPLHEDTDSPVPGLTHRYPDRVLLLITDMCSMYCRHCTRRRFAGQSDDSMPMERIDKAIDYIRNTPQVRDVLLSGGDALLVSDETLEYIIAKLREIPHVEIVRIGSRTPVVLPQRITPELVNMLKKYHPVWLNTHFNHPNEITEESTRACQLLADAGVPLGNQSVLLRGVNDCVHVMKELVNKLVKIRVRPYYIYQCDLSLGLEHFRTPVSKGIEIIEGLRGHTSGYCVPTFVVDAPGGGGKTPVMPNYVISQSHDKVILRNFEGVITTYSEPINYTPGCNCDVCTGKKKVHKVGVAGLLNGEGMALEPVGLERNKRHVQE
modifications: Clostridium subterminale

Columns and labels:
[1] = molecular target: T1, Clostridium subterminale SB4 lysine-2,3-aminomutase (Clostridium subterminale, UniProt Q9XBQ8); test: Conversion of L-alanine to β-alanine by lysine 2,3-aminomutase, HPLC of PITC derivatives; type: biochemical; details: for effect of amine on generation of β-alanine from L-alanine: amine 0.2 M, L-alanine 0.38 M, 90 min at 37° C.
T1 construct: made in house; host or cells: E. coli BL21(DE3) with pET-23a(+) (lysine 2,3-aminomutase gene) and pAlter-Ex2 (dnaY gene)
Method: FIG. 6 is time course of the appearance of the HPLC peak of β-alanine by Clostridium subterminale SB4 lysine 2,3-aminomutase. Reductively incubated recombinant-produced purified lysine-2,3-aminomutase (18) (10 μM-hexamer) was mixed with the following components: A) N-[2-hydroxyethyl-piperazine-N′-[3-propanesulfonic acid] (EPPS) 36 mM pH 8.0, Na salt; B) S-(5′-adenosyl)-L-methionine 390 μM; C) sodium hydrosulfite 3.6 mM; D) L-alanine 380 mM; E) ethylamine 0.20 M pH 8.0. At various time intervals at 37° C., 60 μl of reaction mix was added to 20 μl of 2 N perchloric acid to stop the reaction. Samples were centrifuged at 14,000×g for 10 mm. The supernatants were treated with phenylisothiocyanate (PITC) according to the method of Heinrikson and Meredith (28). The PITC derivative of L-alanine was separated from the β-alanine derivative by HPLC chromatography (28) using a C18 reverse phase column (Beckman Ultrasphere 5μ, 4.6 mm×25 cm, #235329), flow rate 1 ml/min, room temperature. The amino acids were resolved with a complex linear gradient composed of buffer A: 0.05 M ammonium acetate in water and buffer B: 0.1M ammonium acetate in 44% water, 46% acetonitrile, 10% methanol. The gradient established was 0-10% Buffer B in 35 min, then 10-30% Buffer B in 35 min. The PITC derivative of L-alanine elutes at a retention time of 35.0 min whereas the PITC derivative of β-alanine elutes at 26.6 min.
FIG. 8 is the effect of varying concentrations of L-alanine on the production of β-alanine by Clostridiurn subterminale SB4 lysine 2,3-aminomutase. Experimental conditions as given in FIG. 6 except for the concentration of L-alanine. The concentrations of L-alanine used: 0.05 M (2), 0.11 M (3), 0.20 M (4), and 0.38 M (5). The zero reaction time HPLC elution profile for 0.05 M L-alanine (1) is included. The enzyme was reacted with L-alanine for 90 min at 37° C. prior to stopping with perchloric acid and PITC derivatization.
FIG. 9 is the potentiating effect of ethyl and propylamines on the generation of β-alanine from L-alanine by Clostridium subterminale SB4 lysine 2,3-aminomutase. […]
Reductively incubated recombinant-produced purified Clostridium subterminale SB4 lysine-2,3-aminomutase (10 μM-hexamer) was mixed with the following components: 1) EPPS buffer 36 mM pH 8.0, Na salt; 2) S-(5′-adenosyl)-L-methionine 390 μM; 3) sodium hydrosulfite 3.6 mM; 4) L-alanine 380 mM; 5) ethylamine 0.20 M pH 8.0. […] The eluting compounds were detected by spectrophotometry at a wavelength of 254 nm The amino acids were resolved with a complex linear gradient composed of buffer A: 0.05 M ammonium acetate in water and buffer B: 0.1M ammonium acetate in 44% water, 46% acetonitrile, 10% methanol. […]

[2] = molecular target: T1, Clostridium subterminale SB4 lysine-2,3-aminomutase; test: EPR spectroscopy of lysine 2,3-aminomutase and coenzymes mixed with L-α-amino acids; type: biochemical; details: amino acid in place of L-lysine, frozen, EPR at 77 K
Method: FIG. 3 is electron paramagnetic resonance (EPR) spectroscopy of Clostridium subterminale SB4 lysine-2,3-aminomutase in the presence of L-lysine (1), L-aspartate (2), L-glutamate (3), or no substrate (4). Reductively incubated recombinant-produced purified lysine-2,3-aminomutase (18) (75 μM-hexamer) was quickly mixed at 24° C. and frozen (total time<15 sec) at −150° C. with the following components: A) Tris(hydroxymethyl)aminomethane sulfate (Tris-sulfate) 240 mM pH 8.0; B) S-(5′-adenosyl)-L-methionine 1.4 mM; C) sodium hydrosulfite 2.0 mM; D) L-lysine, L-aspartate, or L-glutamate 120 mM. Concentrations listed are final concentrations after mixing. Following freezing, samples were evaluated at 77° K by EPR using a Varian model E3 spectrometer with the following settings: Field center—3250 Gauss; Scan width—200 Gauss; Microwave frequency—9.1 GHz; Microwave power—5 milli Watts; Modulation frequency—100 kHz; Modulation amplitude—1.6 Gauss; Time constant—0.3 sec.; Scan time—240 sec; Gain—125,000.
FIG. 4 is electron paramagnetic resonance (EPR) spectroscopy of Clostridium subterminale SB4 lysine-2,3-aminomutase in the presence of L-alanine (2), L-alanine+ethylamine (3) L-alanine+propylamine (4), L-lysine (5) and no substrate (1). Conditions as given in FIG. 3 except L-lysine or L-alanine 120 mM; ± ethylamine or propylamine each 0.19 M or no substrate (5).
FIG. 5 is electron paramagnetic resonance spectroscopy of Clostridium subterminale SB4 lysine-2,3-aminomutase in the presence of L-lysine (1), L-homoserine (2), DL-homocysteine (3), or L-methionine (4). Reductively incubated recombinant-produced purified lysine-2.3-aminomutase (18) (51.4 μM-hexamer) was quickly mixed at 24° C. and frozen (total time<15 sec) at −150° C. with the following components: A) Tris(hydroxymethyl)aminomethane sulfate (Tris-sulfate) 185 mM pH 8.0; B) S-(5′-adenosyl)-L-methionine 1.1 mM; C) sodium hydrosulfite 1.5 mM; D) L-lysine 92 mM, L-homoserine 92 mM, or DL-homocysteine 92 mM, or L-methionine 65 mM. Concentrations listed are final concentrations after mixing. Following freezing, samples were evaluated at 77° K by EPR using a Varian model E3 spectrometer with the following settings: Field center—3250 Gauss; Scan width—200 Gauss; Microwave frequency—9.1 GHz; Microwave power—5 milli Watts; Modulation frequency—100 kHz; Modulation amplitude—1.6 Gauss; Time constant—0.3 sec.; Scan time—240 sec; Gain—250,000. FIG. 4B. 4.6×enlargement of (2), (3), and (4) of FIG. 4A.
Although lysine 2,3-aminomutase is selective for L-lysine as its substrate, it also catalyzes the 2,3-aminomutation of other L-α-amino acids. A simple and definitive assay for such reaction is the EPR spectrum of a mixture of lysine 2,3-aminomutase with its coenzymes and an L-α-amino acid.
The spectral envelope is determined by five structural features in the substrate: 1) the L-configuration at the optically active carbon-2, shown as Cα in FIG. 1A; 2) a hydrogen atom bonded to Cα; 3) a carboxyl group bonded to Cα; 4) a nitrogen atom bonded to Cβ; and 5) a hydrogen atom bonded to Cβ. […] The conformation of the radical is determined by the dihedral angles relating the axis of the π-radical orbital to the bonds Cα—H, Cβ—H, and Cβ—N, and these angles determine the nuclear hyperfine splitting in the spectrum and, thereby, the shape of the spectral envelope.

[3] = molecular target: T2, lysine 2,3-aminomutase (Bacillus subtilis, UniProt O34676); test: Lysine 2,3-aminomutase activity of extracts of E. coli BL21 (DE3) cells expressing the B. subtilus gene; type: biochemical, Bacillus subtilus; details: pET23a(+) construct in E. coli BL21 (DE3), induction with 1 mM IPTG
T2 construct: made in house; host or cells: E. coli BL21 (DE3), pET23a(+), NdeI/XhoI; cell extract
Source text: In one instance, the gene from Bacillus subtilus (SEQ ID NO:9) was isolated from chromosomal DNA by PCR generating an oligonucleotide insert which after the appropriate restriction digestion was cloned into the NdeI and XhoI site of pET23a(+) expression vector (Novagen, Inc., Madison, Wis.).

[4] = molecular target: T3, Clostridial lysine 2,3-aminomutase (Clostridium subterminale, UniProt Q9XBQ8); details: purified enzyme from Clostridium subterminale SB4 cells; Lieder et al., Biochemistry 37:2578 (1998); cited from earlier work
T3 construct: made in house; host or cells: E. coli BL21(DE3) with pET-23a(+) (lysine 2,3-aminomutase gene) and pAlter-Ex2 (dnaY gene)

| Molecule | EPR spectrum of product-related radical compared with L-lysine [2] | further results |
| --- | --- | --- |
| CCCN [Propylamine] | – | effect of amine on generation of β-alanine from L-alanine [1]: potentiates the reaction less effectively than ethylamine |
| N[C@@H](CCO)C(=O)O [L-homoserine] | less intense but otherwise essentially indistinguishable from that with L-lysine | – |
| N[C@@H](CC(=O)O)C(=O)O [L-aspartate] | less intense but otherwise essentially indistinguishable from that with L-lysine | – |
| C[C@H](N)C(=O)O [L-alanine] | less intense but otherwise essentially indistinguishable from that with L-lysine | production of β-alanine from L-alanine ([1]; L-alanine 0.05 M to 0.38 M, ethylamine 0.20 M, 37° C.): β-alanine was produced from L-alanine; also recorded: increased β-alanine with increased substrate (L-alanine) concentration; rate of conversion of L-alanine to β-alanine relative to the rate with 0.2 M ethylamine ([1]; in the absence of ethylamine or propylamine, estimated): about 1/20 |
| N[C@@H](CCC(=O)O)C(=O)O [L-glutamate] | less intense but otherwise essentially indistinguishable from that with L-lysine | – |
| CSCC[C@H](N)C(=O)O [L-methionine] | weak but also consistent with expectations for the analogous radical | – |
| CCN [ethylamine] | – | effect of amine on generation of β-alanine from L-alanine [1]: potentiated |
| NC(CCS)C(=O)O (racemic) [DL-homocysteine] | less intense but otherwise essentially indistinguishable from that with L-lysine | – |
| B1 | – | lysine 2,3-aminomutase activity of cell extracts [3]: exhibiting lysine 2,3-aminomutase activity |
| B2 | – | specific activity [4]: 30-40 units/mg |
